# Key:
# [1] = system: UM-UC-3; test: Selectivity evaluation, cytotoxicity in UM-UC-3; type: cell-based; settings: Homo sapiens, UMUC3; UM-UC-3 (malignant), 72 hours, ATP detection
# Procedure: (§1) Commercially available bladder cancer cell lines were treated with trypsin-EDTA and seeded in each well of a 96 well plate, followed by incubation for 24 hours. After incubation, candidate compounds were added to each well at a final concentration of 0 to 2 μM. The compound-treated cells were further incubated for 72 hours. Cell viability was measured using an ATP detection method (CellTiter-Glo® Luminescent Cell Viability Assay, Promega).
# (§2) The selectivity of the compounds of the present disclosure to cancer cells was evaluated in the same manner as described in “2. Cell based assay”.
# UM-UC-3: human urinary bladder transitional cell carcinoma
# [2] = system: 253J; test: Selectivity evaluation, cytotoxicity in 253J; type: cell-based; settings: Homo sapiens; 253J (malignant), 72 hours, ATP detection
# Procedure: as §1, §2
# 253J: human urinary tract transitional cell carcinoma
# [3] = system: Mouse; test: IV and IP single toxicity test; type: in vivo; settings: for Percentage (deaths), single toxicity evaluation: Mouse
# [4] = molecular target: T1, recombinant c-Myc/Max (Homo sapiens, UniProt P01106+P61244); test: Electrophoretic mobility shift assay (EMSA): inhibitory activity on DNA binding of recombinant c-Myc/Max; settings: read-out: protein assay IC50
# T1 construct: made in house
# T1 sequence (P01106 whole entry): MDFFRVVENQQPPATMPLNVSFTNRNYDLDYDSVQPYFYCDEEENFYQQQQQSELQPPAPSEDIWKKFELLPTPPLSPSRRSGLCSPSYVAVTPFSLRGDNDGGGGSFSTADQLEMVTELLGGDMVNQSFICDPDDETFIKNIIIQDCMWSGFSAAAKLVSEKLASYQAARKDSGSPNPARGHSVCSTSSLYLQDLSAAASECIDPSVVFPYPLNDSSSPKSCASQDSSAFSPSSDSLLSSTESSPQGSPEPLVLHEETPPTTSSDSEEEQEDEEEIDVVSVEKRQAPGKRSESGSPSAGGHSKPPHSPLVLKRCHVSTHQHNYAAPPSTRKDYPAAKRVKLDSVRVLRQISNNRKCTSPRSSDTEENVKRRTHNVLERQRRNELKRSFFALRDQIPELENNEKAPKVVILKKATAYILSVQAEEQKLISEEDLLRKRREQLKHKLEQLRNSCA
# T1 sequence (P61244 whole entry): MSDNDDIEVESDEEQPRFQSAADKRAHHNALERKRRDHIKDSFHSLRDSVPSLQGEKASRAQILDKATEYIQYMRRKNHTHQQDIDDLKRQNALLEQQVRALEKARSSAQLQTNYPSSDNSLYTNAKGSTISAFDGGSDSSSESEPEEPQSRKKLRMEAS
# Summary of the method: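 Protein mixture preincubated 5 min at room temperature, compound in DMSO added for 5 min, then biotinylated annealed E-box DNA for 10 min to equilibrium. Complexes resolved on 8% polyacrylamide in 1×TBE (120 V, 1 h), detected with HRP-streptavidin/ECL; protein-DNA complex ratio from band intensity.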
Compound,IC50 [4],also measured
"CC(=O)c1c([S+]([O-])Cc2ccccc2)nc2c(Br)ccc(Cl)c2c1O (stereo not shown) [Compound 4, 3-acetyl-2-(benzylsulfinyl)-8-bromo-5-chloroquinolin-4(1H)-one]",–,"IC50 [1]: 1500 nM; IC50 [2]: 1100 nM; deaths ([3]; IV and IP single-dose administration, 40 mpk, 40 mg/kg): No deaths were observed; Percentage (deaths), single toxicity evaluation ([3]; Female, IP 40 mg/kg): 0 (0/2) %; Percentage (deaths), single toxicity evaluation ([3]; Female, IV 40 mg/kg): 0 (0/2) %; Percentage (deaths), single toxicity evaluation ([3]; Male, IP 40 mg/kg): 0 (0/2) %"
"CC(=O)c1c([S+]([O-])Cc2ccc([N+](=O)[O-])cc2)[nH]c2c(Br)ccc(Cl)c2c1=O (stereo not shown) [Compound 33, 3-acetyl-8-bromo-5-chloro-2-((4-nitrobenzyl)sulfinyl)quinolin-4(1H)-one]",< 1000 nM,IC50 [1]: 1600 nM; IC50 [2]: 1600 nM
"Cc1cc(C[S+]([O-])c2[nH]c3c(Cl)ccc(Cl)c3c(=O)c2C(=O)C(C)C)no1 (stereo not shown) [Compound 86, 5,8-dichloro-3-isobutyryl-2-(((5-methylisoxazol-3-yl)methyl)sulfinyl)quinolin-4(1H)-one]",< 1000 nM,–
"O=C(c1ccccc1)c1c([S+]([O-])Cc2ccc(S(F)(F)(F)(F)F)cc2)[nH]c2c(F)ccc(F)c2c1=O (stereo not shown) [Compound 87, 3-benzoyl-5,8-difluoro-2-((4-(pentafluoro-λ6-sulfanyl)benzyl)sulfinyl)quinolin-4(1H)-one]",< 1000 nM,–
"Cc1cc(C[S+]([O-])c2[nH]c3c(Cl)ccc(Cl)c3c(=O)c2C(=O)c2ccccc2)no1 (stereo not shown) [Compound 88, 3-benzoyl-5,8-dichloro-2-(((5-methylisoxazol-3-yl)methyl)sulfinyl)quinolin-4(1H)-one]",< 1000 nM,–
"COC(=O)c1ccc(C[S+]([O-])c2[nH]c3c(Cl)ccc(Cl)c3c(=O)c2C(C)=O)o1 (stereo not shown) [Compound 89, methyl 5-(((3-acetyl-5,8-dichloro-4-oxo-1,4-dihydroquinolin-2-yl)sulfinyl)methyl)furan-2-carboxylate]",< 1000 nM,–
"CC(=O)c1c([S+]([O-])CN2C(=O)c3ccccc3C2=O)[nH]c2c(Cl)ccc(Cl)c2c1=O (stereo not shown) [Compound 90, 2-(((3-acetyl-5,8-dichloro-4-oxo-1,4-dihydroquinolin-2-yl)sulfinyl)methyl)isoindoline-1,3-dione]",< 1000 nM,–
"COC(=O)c1ccc(C[S+]([O-])c2[nH]c3c(Cl)ccc(Cl)c3c(=O)c2C(C)=O)cc1 (stereo not shown) [Compound 91, methyl 4-(((3-acetyl-5,8-dichloro-4-oxo-1,4-dihydroquinolin-2-yl)sulfinyl)methyl)benzoate]",< 1000 nM,–
"COc1cccc2[nH]c(SCc3ccc(S(F)(F)(F)(F)F)cc3)c(C(C)=O)c(=O)c12 [Compound 92, 3-acetyl-5-methoxy-2-((4-(pentafluoro-λ6-sulfanyl)benzyl)thio)quinolin-4(1H)-one]",< 1000 nM,–
"COc1cccc2[nH]c([S+]([O-])Cc3ccc(S(F)(F)(F)(F)F)cc3)c(C(C)=O)c(=O)c12 (stereo not shown) [Compound 93, 3-acetyl-5-methoxy-2-((4-(pentafluoro-λ6-sulfanyl)benzyl)sulfinyl)quinolin-4(1H)-one]",< 1000 nM,–
"COc1cccc2[nH]c([S+]([O-])Cc3cc(C)on3)c(C(C)=O)c(=O)c12 (stereo not shown) [Compound 94, 3-acetyl-5-methoxy-2-(((5-methylisoxazol-3-yl)methyl)sulfinyl)quinolin-4(1H)-one]",< 1000 nM,–
"Cc1cc(C[S+]([O-])c2[nH]c3c(Br)ccc(Cl)c3c(=O)c2C(=O)C(C)C)no1 (stereo not shown) [Compound 95, 8-bromo-5-chloro-3-isobutyryl-2-(((5-methylisoxazol-3-yl)methyl)sulfinyl)quinolin-4(1H)-one]",< 1000 nM,–
"Cc1cc(C[S+]([O-])c2[nH]c3c(Br)ccc(Cl)c3c(=O)c2C(=O)C2CC2)no1 (stereo not shown) [Compound 96, 8-bromo-5-chloro-3-(cyclopropanecarbonyl)-2-(((5-methylisoxazol-3-yl)methyl)sulfinyl)quinolin-4(1H)-one]",< 1000 nM,–
"Cc1cc(C[S+]([O-])c2[nH]c3c(Cl)ccc(Cl)c3c(=O)c2C(=O)C2CC2)no1 (stereo not shown) [Compound 97, 5,8-dichloro-3-(cyclopropanecarbonyl)-2-(((5-methylisoxazol-3-yl)methyl)sulfinyl)quinolin-4(1H)-one]",< 1000 nM,–
"CC(=O)c1c([S+]([O-])Cc2ccc(C#N)s2)[nH]c2c(Br)ccc(Cl)c2c1=O (stereo not shown) [Compound 98, 5-(((3-acetyl-8-bromo-5-chloro-4-oxo-1,4-dihydroquinolin-2-yl)sulfinyl)methyl)thiophene-2-carbonitrile]",< 1000 nM,–
"CC(=O)c1c([S+]([O-])Cc2ccc(-n3cccn3)nc2)[nH]c2c(Br)ccc(Cl)c2c1=O (stereo not shown) [Compound 99, 2-(((6-(1H-pyrazol-1-yl)pyridin-3-yl)methyl)sulfinyl)-3-acetyl-8-bromo-5-chloroquinolin-4(1H)-one]",< 1000 nM,–
"CC(=O)c1c([S+]([O-])Cc2ccc(N)nc2)[nH]c2c(Br)ccc(Cl)c2c1=O (stereo not shown) [Compound 100, 3-acetyl-2-(((6-aminopyridin-3-yl)methyl)sulfinyl)-8-bromo-5-chloroquinolin-4(1H)-one]",< 1000 nM,–
"O=C(c1c([S+]([O-])Cc2ccc(SC(F)(F)F)cc2)[nH]c2c(Br)ccc(Cl)c2c1=O)C1CC1 (stereo not shown) [Compound 101, 8-bromo-5-chloro-3-(cyclopropanecarbonyl)-2-((4-((trifluoromethyl)thio)benzyl)sulfinyl)quinolin-4(1H)-one]",< 1000 nM,–
"CC(=O)c1c([S+]([O-])Cc2ccc(C(F)(F)F)nc2C)[nH]c2c(Br)ccc(Cl)c2c1=O (stereo not shown) [Compound 102, 3-acetyl-8-bromo-5-chloro-2-(((2-methyl-6-(trifluoromethyl)pyridin-3-yl)methyl)sulfinyl)quinolin-4(1H)-one]",< 1000 nM,–
"CC(=O)c1c([S+]([O-])Cc2ccc(NS(C)(=O)=O)cc2)[nH]c2c(Br)ccc(Cl)c2c1=O (stereo not shown) [Compound 103, N-(4-(((3-acetyl-8-bromo-5-chloro-4-oxo-1,4-dihydroquinolin-2-yl)sulfinyl)methyl)phenyl)methanesulfonamide]",< 1000 nM,–
"CC(=O)c1c([S+]([O-])Cc2ccc(Cl)nc2)[nH]c2c(Br)ccc(Cl)c2c1=O (stereo not shown) [Compound 104, 3-acetyl-8-bromo-5-chloro-2-(((6-chloropyridin-3-yl)methyl)sulfinyl)quinolin-4(1H)-one]",< 1000 nM,–
"COCCNc1ccc(C[S+]([O-])c2[nH]c3c(Br)ccc(Cl)c3c(=O)c2C(C)=O)cn1 (stereo not shown) [Compound 105, 3-acetyl-8-bromo-5-chloro-2-(((6-((2-methoxyethyl)amino)pyridin-3-yl)methyl)sulfinyl)quinolin-4(1H)-one]",< 1000 nM,–
"CC(=O)c1c([S+]([O-])Cc2nonc2C)[nH]c2c(Br)ccc(Cl)c2c1=O (stereo not shown) [Compound 106, 3-acetyl-8-bromo-5-chloro-2-(((4-methyl-1,2,5-oxadiazol-3-yl)methyl)sulfinyl)quinolin-4(1H)-one]",< 1000 nM,–
"CC(=O)c1c([S+]([O-])Cc2cnc3[nH]ccc3c2)[nH]c2c(Br)ccc(Cl)c2c1=O (stereo not shown) [Compound 107, 2-(((1H-pyrrolo[2,3-b]pyridin-5-yl)methyl)sulfinyl)-3-acetyl-8-bromo-5-chloroquinolin-4(1H)-one]",< 1000 nM,–
